Experimental data reported in patent US20060069132A1, “Azolecarboxamide herbicides” (priority 2004, published 2006).

Legend:
[1] = tested on: giant foxtail; experiment: Test B pre-/postemergence herbicide test; format: in vivo, Setaria faberi
Summary of the method: (§1)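 Evaluation is visual, comparing treated with control plants on a scale where 0 means no effect and 100 means full control. Treatments were preemergence, or postemergence on seedlings 2–18 cm tall, and held 13–15 days in the greenhouse.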

[2] = tested on: morningglory; experiment: Test B pre-/postemergence herbicide test; format: in vivo, Ipomoea coccinea
Summary of the method: (§2)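 Formulation: non-phytotoxic solvent mix with surfactant. Timing: preemergence on seed and postemergence on 2–18 cm plants, applied concurrently. Readout after 13–15 d greenhouse: visual 0–100 control rating against controls.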

[3] = tested on: cocklebur; experiment: Test B pre-/postemergence herbicide test; format: in vivo, Xanthium strumarium
Summary of the method: as §2

[4] = tested on: corn; experiment: Test B pre-/postemergence herbicide test; format: in vivo, Zea mays
Summary of the method: as §1

[5] = tested on: barnyardgrass; experiment: Test B pre-/postemergence herbicide test; format: in vivo, Echinochloa crus-galli
Summary of the method: as §2

[6] = tested on: rice; experiment: Test B flooded paddy test; format: in vivo, Oryza sativa; settings: 1000 g ai/ha, scale 0 to 100 (0 no effect, 100 complete control)
Summary of the method: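 Each value is a visual 0–100 response rating taken against controls 13 to 15 days after treatment in the greenhouse. Plants received formulated chemical postemergence at the 1- to 4-leaf stage or, in flooded paddy, at the 2-leaf stage.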

[7] = tested on: Surinam grass; experiment: Test B pre-/postemergence herbicide test; format: in vivo, Urochloa decumbens
Summary of the method: as §1

[8] = tested on: small flower umbrella sedge; experiment: Test B flooded paddy test; format: in vivo, Cyperus difformis; settings: 1000 g ai/ha, scale 0 to 100 (0 no effect, 100 complete control)
Summary of the method: (§3)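 Scale 0–100: zero equals no visible effect, 100 complete control, judged by eye relative to controls. Timing: 13 to 15 days in greenhouse post-treatment. Growth stage at spraying: two leaves (paddy) or one to four leaves, 2–18 cm (postemergence).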

[9] = tested on: pigweed; experiment: Test B pre-/postemergence herbicide test; format: in vivo, Amaranthus retroflexus
Summary of the method: as §1

[10] = tested on: velvetleaf; experiment: Test B pre-/postemergence herbicide test; format: in vivo, Abutilon theophrasti
Summary of the method: as §1

[11] = tested on: blackgrass; experiment: Test B postemergence herbicide test; format: in vivo, Alopecurus myosuroides; settings: for Plant response rating, Blackgrass: visual rating after 13 to 15 days
Summary of the method: as §3

[12] = tested on: wild oat; experiment: Test B postemergence herbicide test; format: in vivo, Avena fatua; settings: for Plant response rating, Oat, Wild: visual rating after 13 to 15 days
Summary of the method: (§4)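 Read-out: visual comparison with controls, scored 0 to 100, where 100 means complete control and 0 no effect. Formulated chemicals were applied postemergence to plants 2–18 cm tall (1- to 4-leaf), or to flooded-paddy plants at the 2-leaf stage, then held 13 to 15 days under glass.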

[13] = tested on: ducksalad; experiment: Test B flooded paddy test; format: in vivo, Heteranthera limosa; settings: 1000 g ai/ha, scale 0 to 100 (0 no effect, 100 complete control)
Summary of the method: as §3

[14] = tested on: large crabgrass; experiment: Test B pre-/postemergence herbicide test; format: in vivo, Digitaria sanguinalis
Summary of the method: as §1

[15] = tested on: wheat; experiment: Test B postemergence herbicide test; format: in vivo, Triticum aestivum; set-up: key to Wheat plant response rating: 0 = no effect, 100 = complete control; settings: for Plant response rating, Wheat: visual rating after 13 to 15 days
Summary of the method: as §4

[16] = Postemergence, 500 g ai/ha, visual rating after 13 to 15 days, scale 0 (no effect) to 100 (complete control)
[17] = Preemergence, 500 g ai/ha, scale 0 to 100
[18] = postemergence, 125 g ai/ha, visual rating, scale 0 (no effect) to 100 (complete control)
[19] = preemergence, 125 g ai/ha, 0 to 100 scale, 0 is no effect, 100 is complete control
[20] = Postemergence, 500 g ai/ha, scale 0 (no effect) to 100 (complete control)
[21] = 125 g ai/ha, 0 = no effect, 100 = complete control, preemergence
[22] = 125 g ai/ha, visual rating, scale 0 (no effect) to 100 (complete control), postemergence
[23] = 500 g ai/ha, visual rating, 0 = no effect, 100 = complete control, preemergence
[24] = postemergence, 500 g ai/ha, scale 0 to 100, 0 is no effect, 100 is complete control
[25] = Postemergence, 125 g ai/ha, scale 0 (no effect) to 100 (complete control)
[26] = 125 g ai/ha, 0 is no effect, 100 is complete control, preemergence

CCN1CCc2c(NC(=O)c3cc(C(C)(C)C)nn3CC)cccc2C1=O [Compound 63]
Plant response rating, Foxtail, Giant [1, 16]: 20 | Foxtail, Giant plant response rating [1, 17]: 100 | Foxtail, Giant plant response rating [1, 18]: 10 | Plant response rating, Foxtail, Giant [1, 19]: 60 | Plant response rating, Morningglory [2, 16]: 20 | Morningglory plant response rating [2, 18]: 20 | Plant response rating, Morningglory [2, 19]: 0 | Plant response rating, Cocklebur [3, 16]: 70 | Cocklebur plant response rating [3, 17]: 10 | Cocklebur plant response rating [3, 18]: 60 | Plant response rating, Cocklebur [3, 19]: 0 | Plant response rating, Corn [4, 16]: 20 | Corn plant response rating [4, 17]: 30 | Corn plant response rating [4, 18]: 20 | Plant response rating, Corn [4, 19]: 0 | Plant response rating, Barnyardgrass [5, 16]: 20 | Barnyardgrass plant response rating [5, 17]: 100 | Barnyardgrass plant response rating [5, 18]: 10 | Plant response rating, Barnyardgrass [5, 19]: 60 | Rice plant response rating ([6]; visual rating, 13 to 15 days): 60 | Plant response rating, Surinam Grass [7, 16]: 20 | Surinam Grass plant response rating [7, 18]: 10 | Plant response rating, Surinam Grass [7, 19]: 20 | Sedge, Umbrella plant response rating ([8]; visual rating, 13 to 15 days): 100 | Plant response rating, Pigweed [9, 16]: 70 | Pigweed plant response rating [9, 18]: 40 | Plant response rating, Pigweed [9, 19]: 100 | Plant response rating, Velvetleaf [10, 16]: 50 | Velvetleaf plant response rating [10, 18]: 40 | Plant response rating, Velvetleaf [10, 19]: 10 | Plant response rating, Blackgrass [11, 20]: 20 | Blackgrass plant response rating [11, 18]: 10 | Plant response rating, Oat, Wild [12, 20]: 30 | Oat, Wild plant response rating [12, 18]: 20 | Ducksalad plant response rating ([13]; visual rating, 13 to 15 days): 90 | Plant response rating, Crabgrass, Large [14, 16]: 20 | Crabgrass, Large plant response rating [14, 17]: 100 | Crabgrass, Large plant response rating [14, 18]: 10 | Plant response rating, Crabgrass, Large [14, 19]: 70 | Plant response rating, Wheat [15, 20]: 10 | Wheat plant response rating [15, 18]: 10

CCn1nc(C(C)(C)C)cc1C(=O)Nc1ccc(OC)c(OC)c1 [Compound 298]
Foxtail, Giant plant response rating (0 to 100 scale) [1, 21]: 80 | Foxtail, Giant plant response rating [1, 22]: 10 | Plant response rating, Foxtail, Giant [1, 23]: 100 | Foxtail, Giant plant response rating [1, 24]: 50 | Morningglory plant response rating (0 to 100 scale) [2, 21]: 10 | Morningglory plant response rating [2, 22]: 60 | Plant response rating, Morningglory [2, 23]: 40 | Morningglory plant response rating [2, 24]: 70 | Cocklebur plant response rating (0 to 100 scale) [3, 21]: 0 | Cocklebur plant response rating [3, 22]: 20 | Plant response rating, Cocklebur [3, 23]: 0 | Cocklebur plant response rating [3, 24]: 50 | Corn plant response rating (0 to 100 scale) [4, 21]: 30 | Corn plant response rating [4, 22]: 0 | Plant response rating, Corn [4, 23]: 70 | Corn plant response rating [4, 24]: 10 | Barnyardgrass plant response rating (0 to 100 scale) [5, 21]: 70 | Barnyardgrass plant response rating [5, 22]: 10 | Plant response rating, Barnyardgrass [5, 23]: 90 | Barnyardgrass plant response rating [5, 24]: 50 | Rice plant response rating [6]: 80 | Surinam Grass plant response rating (0 to 100 scale) [7, 21]: 80 | Surinam Grass plant response rating [7, 22]: 20 | Plant response rating, Surinam Grass [7, 23]: 100 | Surinam Grass plant response rating [7, 24]: 50 | Sedge, Umbrella plant response rating [8]: 70 | Pigweed plant response rating (0 to 100 scale) [9, 21]: 100 | Pigweed plant response rating [9, 22]: 80 | Plant response rating, Pigweed [9, 23]: 100 | Pigweed plant response rating [9, 24]: 90 | Velvetleaf plant response rating [10, 22]: 60 | Plant response rating, Velvetleaf [10, 23]: 60 | Velvetleaf plant response rating [10, 24]: 60 | Blackgrass plant response rating [11, 22]: 20 | Blackgrass plant response rating [11, 24]: 50 | Oat, Wild plant response rating [12, 22]: 30 | Oat, Wild plant response rating [12, 24]: 40 | Ducksalad plant response rating [13]: 90 | Crabgrass, Large plant response rating (0 to 100 scale) [14, 21]: 100 | Crabgrass, Large plant response rating [14, 22]: 20 | Plant response rating, Crabgrass, Large [14, 23]: 100 | Crabgrass, Large plant response rating [14, 24]: 70 | Wheat plant response rating [15, 22]: 20 | Wheat plant response rating [15, 24]: 30

CCn1nc(C(C)(C)C)cc1C(=O)Nc1cccc(C(=O)NC2CC2)c1 [Compound 44]
Foxtail, Giant plant response rating [1, 25]: 20 | Plant response rating, Foxtail, Giant [1, 16]: 30 | Foxtail, Giant plant response rating [1, 17]: 70 | Plant response rating, Foxtail, Giant [1, 19]: 0 | Morningglory plant response rating [2, 25]: 30 | Plant response rating, Morningglory [2, 16]: 90 | Morningglory plant response rating [2, 17]: 10 | Plant response rating, Morningglory [2, 19]: 0 | Cocklebur plant response rating [3, 25]: 40 | Plant response rating, Cocklebur [3, 16]: 80 | Cocklebur plant response rating [3, 17]: 20 | Corn plant response rating [4, 25]: 20 | Plant response rating, Corn [4, 16]: 30 | Corn plant response rating [4, 17]: 0 | Barnyardgrass plant response rating [5, 25]: 20 | Plant response rating, Barnyardgrass [5, 16]: 60 | Barnyardgrass plant response rating [5, 17]: 100 | Rice plant response rating ([6]; visual rating, 13 to 15 days): 70 | Plant response rating, Surinam Grass [7, 16]: 20 | Surinam Grass plant response rating [7, 17]: 40 | Plant response rating, Surinam Grass [7, 19]: 0 | Sedge, Umbrella plant response rating ([8]; visual rating, 13 to 15 days): 70 | Plant response rating, Pigweed [9, 16]: 100 | Pigweed plant response rating [9, 17]: 100 | Plant response rating, Pigweed [9, 19]: 100 | Plant response rating, Velvetleaf [10, 16]: 80 | Velvetleaf plant response rating [10, 17]: 100 | Plant response rating, Velvetleaf [10, 19]: 20 | Blackgrass plant response rating [11, 25]: 10 | Plant response rating, Blackgrass [11, 20]: 20 | Oat, Wild plant response rating [12, 25]: 20 | Plant response rating, Oat, Wild [12, 20]: 20 | Ducksalad plant response rating ([13]; visual rating, 13 to 15 days): 70 | Crabgrass, Large plant response rating [14, 25]: 20 | Plant response rating, Crabgrass, Large [14, 16]: 90 | Crabgrass, Large plant response rating [14, 17]: 100 | Plant response rating, Wheat [15, 20]: 20

C=CCNC(=O)c1cccc(NC(=O)c2nn(C(C)C)nc2CC)c1 [Compound 382]
Plant response rating (0 to 100 scale), Foxtail, Giant [1, 26]: 80 | Foxtail, Giant plant response rating [1, 22]: 0 | Foxtail, Giant plant response rating [1, 24]: 10 | Plant response rating (0 to 100 scale), Morningglory [2, 26]: 10 | Morningglory plant response rating [2, 22]: 20 | Morningglory plant response rating [2, 20]: 60 | Plant response rating (0 to 100 scale), Cocklebur [3, 26]: 0 | Cocklebur plant response rating [3, 22]: 10 | Cocklebur plant response rating [3, 24]: 10 | Plant response rating (0 to 100 scale), Corn [4, 26]: 0 | Corn plant response rating [4, 22]: 0 | Corn plant response rating [4, 24]: 0 | Plant response rating (0 to 100 scale), Barnyardgrass [5, 26]: 80 | Barnyardgrass plant response rating [5, 22]: 0 | Barnyardgrass plant response rating [5, 24]: 0 | Rice plant response rating [6]: 80 | Plant response rating (0 to 100 scale), Surinam Grass [7, 26]: 50 | Surinam Grass plant response rating [7, 22]: 10 | Surinam Grass plant response rating [7, 20]: 10 | Sedge, Umbrella plant response rating [8]: 70 | Plant response rating (0 to 100 scale), Pigweed [9, 26]: 50 | Pigweed plant response rating [9, 22]: 30 | Pigweed plant response rating [9, 20]: 40 | Plant response rating (0 to 100 scale), Velvetleaf [10, 26]: 10 | Velvetleaf plant response rating [10, 22]: 10 | Velvetleaf plant response rating [10, 20]: 20 | Blackgrass plant response rating [11, 22]: 10 | Blackgrass plant response rating [11, 24]: 30 | Oat, Wild plant response rating [12, 22]: 10 | Oat, Wild plant response rating [12, 20]: 20 | Ducksalad plant response rating [13]: 80 | Plant response rating (0 to 100 scale), Crabgrass, Large [14, 26]: 80 | Crabgrass, Large plant response rating [14, 22]: 10 | Crabgrass, Large plant response rating [14, 24]: 10 | Wheat plant response rating [15, 22]: 0 | Wheat plant response rating ([15]; 500 g ai/ha, scale 0 to 100, 0 no effect, 100 complete control, preemergence): 80 | Wheat plant response rating [15, 20]: 10
